Results: ChEMBL document CHEMBL3046407, “Toxicity of monoterpenes against larvae and adults of Colorado potato beetle, Leptinotarsa decemlineata Say (Coleoptera: Chrysomelidae)” (2007)

What was measured:
[1] = tested on: Leptinotarsa decemlineata; assay: Insecticidal activity against second-instar larval stage of Leptinotarsa decemlineata infested potato leaves assessed as mortality at 20 ul after 96 hr (reference value: 3.3 +/- 3.3%); type: functional
[2] = tested on: Leptinotarsa decemlineata; assay: Insecticidal activity against second-instar larval stage of Leptinotarsa decemlineata infested potato leaves assessed as mortality at 20 ul after 48 hr (reference value: 3.3 +/- 3.3%); type: functional
[3] = tested on: Leptinotarsa decemlineata; assay: Insecticidal activity against second-instar larval stage of Leptinotarsa decemlineata infested potato leaves assessed as mortality at 20 ul after 24 hr (reference value: 3.3 +/- 3.3%); type: functional
[4] = tested on: Leptinotarsa decemlineata; assay: Insecticidal activity against second-instar larval stage of Leptinotarsa decemlineata infested potato leaves assessed as mortality at 10 ul after 12 hr relative to control; type: functional
Sitophilus granarius = assay: Insecticidal activity against Sitophilus granarius (granary weevil) assessed as mortality; type: functional
[5] = tested on: Leptinotarsa decemlineata; assay: Insecticidal activity against adult Leptinotarsa decemlineata infested potato leaves assessed as mortality at 20 ul after 96 hr relative to control; type: functional
[6] = tested on: Leptinotarsa decemlineata; assay: Insecticidal activity against adult Leptinotarsa decemlineata infested potato leaves assessed as mortality at 20 ul after 48 hr relative to control; type: functional
[7] = tested on: Leptinotarsa decemlineata; assay: Insecticidal activity against adult Leptinotarsa decemlineata infested potato leaves assessed as mortality at 20 ul after 24 hr relative to control; type: functional
[8] = tested on: Leptinotarsa decemlineata; assay: Insecticidal activity against adult Leptinotarsa decemlineata infested potato leaves assessed as mortality at 20 ul after 12 hr relative to control; type: functional
[9] = tested on: Leptinotarsa decemlineata; assay: Insecticidal activity against adult Leptinotarsa decemlineata infested potato leaves assessed as mortality at 10 ul after 96 hr relative to control; type: functional
[10] = tested on: Leptinotarsa decemlineata; assay: Insecticidal activity against adult Leptinotarsa decemlineata infested potato leaves assessed as mortality at 10 ul after 48 hr relative to control; type: functional
[11] = tested on: Leptinotarsa decemlineata; assay: Insecticidal activity against adult Leptinotarsa decemlineata infested potato leaves assessed as mortality at 10 ul after 24 hr relative to control; type: functional
[12] = tested on: Leptinotarsa decemlineata; assay: Insecticidal activity against adult Leptinotarsa decemlineata infested potato leaves assessed as mortality at 10 ul after 12 hr relative to control; type: functional
[13] = tested on: Leptinotarsa decemlineata; assay: Insecticidal activity against second-instar larval stage of Leptinotarsa decemlineata infested potato leaves assessed as mortality at 20 ul after 12 hr relative to control; type: functional
[14] = tested on: Leptinotarsa decemlineata; assay: Insecticidal activity against second-instar larval stage of Leptinotarsa decemlineata infested potato leaves assessed as mortality at 10 ul after 96 hr (reference value: 3.3 +/- 3.3%); type: functional
[15] = tested on: Leptinotarsa decemlineata; assay: Insecticidal activity against second-instar larval stage of Leptinotarsa decemlineata infested potato leaves assessed as mortality at 10 ul after 48 hr (reference value: 3.3 +/- 3.3%); type: functional
[16] = tested on: Leptinotarsa decemlineata; assay: Insecticidal activity against second-instar larval stage of Leptinotarsa decemlineata infested potato leaves assessed as mortality at 10 ul after 24 hr (reference value: 3.3 +/- 3.3%); type: functional
[17] = tested on: Leptinotarsa decemlineata; assay: Insecticidal activity against first-instar larval stage of Leptinotarsa decemlineata infested potato leaves assessed as mortality at 20 ul after 96 hr relative to control; type: functional
[18] = tested on: Leptinotarsa decemlineata; assay: Insecticidal activity against first-instar larval stage of Leptinotarsa decemlineata infested potato leaves assessed as mortality at 20 ul after 48 hr relative to control; type: functional
[19] = tested on: Leptinotarsa decemlineata; assay: Insecticidal activity against first-instar larval stage of Leptinotarsa decemlineata infested potato leaves assessed as mortality at 20 ul after 24 hr relative to control; type: functional
[20] = tested on: Leptinotarsa decemlineata; assay: Insecticidal activity against first-instar larval stage of Leptinotarsa decemlineata infested potato leaves assessed as mortality at 20 ul after 12 hr relative to control; type: functional
[21] = tested on: Leptinotarsa decemlineata; assay: Insecticidal activity against first-instar larval stage of Leptinotarsa decemlineata infested potato leaves assessed as mortality at 10 ul after 96 hr relative to control; type: functional
[22] = tested on: Leptinotarsa decemlineata; assay: Insecticidal activity against first-instar larval stage of Leptinotarsa decemlineata infested potato leaves assessed as mortality at 10 ul after 48 hr relative to control; type: functional
[23] = tested on: Leptinotarsa decemlineata; assay: Insecticidal activity against first-instar larval stage of Leptinotarsa decemlineata infested potato leaves assessed as mortality at 10 ul after 12 hr relative to control; type: functional
[24] = tested on: Leptinotarsa decemlineata; assay: Insecticidal activity against first-instar larval stage of Leptinotarsa decemlineata infested potato leaves assessed as mortality at 10 ul after 24 hr relative to control; type: functional
[25] = tested on: Leptinotarsa decemlineata; assay: Insecticidal activity against third-instar larval stage of Leptinotarsa decemlineata infested potato leaves assessed as mortality at 20 ul after 96 hr (reference value: 3.3 +/- 3.3%); type: functional
[26] = tested on: Leptinotarsa decemlineata; assay: Insecticidal activity against third-instar larval stage of Leptinotarsa decemlineata infested potato leaves assessed as mortality at 20 ul after 48 hr (reference value: 3.3 +/- 3.3%); type: functional
[27] = tested on: Leptinotarsa decemlineata; assay: Insecticidal activity against third-instar larval stage of Leptinotarsa decemlineata infested potato leaves assessed as mortality at 20 ul after 24 hr relative to control; type: functional
[28] = tested on: Leptinotarsa decemlineata; assay: Insecticidal activity against third-instar larval stage of Leptinotarsa decemlineata infested potato leaves assessed as mortality at 20 ul after 12 hr relative to control; type: functional
[29] = tested on: Leptinotarsa decemlineata; assay: Insecticidal activity against third-instar larval stage of Leptinotarsa decemlineata infested potato leaves assessed as mortality at 10 ul after 96 hr (reference value: 3.3 +/- 3.3%); type: functional
[30] = tested on: Leptinotarsa decemlineata; assay: Insecticidal activity against third-instar larval stage of Leptinotarsa decemlineata infested potato leaves assessed as mortality at 10 ul after 48 hr (reference value: 3.3 +/- 3.3%); type: functional
[31] = tested on: Leptinotarsa decemlineata; assay: Insecticidal activity against third-instar larval stage of Leptinotarsa decemlineata infested potato leaves assessed as mortality at 10 ul after 24 hr relative to control; type: functional
[32] = tested on: Leptinotarsa decemlineata; assay: Insecticidal activity against third-instar larval stage of Leptinotarsa decemlineata infested potato leaves assessed as mortality at 10 ul after 12 hr relative to control; type: functional
[33] = tested on: Leptinotarsa decemlineata; assay: Insecticidal activity against first-instar larval stage of Leptinotarsa decemlineata infested potato leaves assessed as mortality at 0.5 mg after 48 hr relative to control; type: functional
[34] = tested on: Leptinotarsa decemlineata; assay: Insecticidal activity against first-instar larval stage of Leptinotarsa decemlineata infested potato leaves assessed as mortality at 0.5 mg after 24 hr relative to control; type: functional
[35] = tested on: Leptinotarsa decemlineata; assay: Insecticidal activity against first-instar larval stage of Leptinotarsa decemlineata infested potato leaves assessed as mortality at 0.5 mg after 12 hr relative to control; type: functional
[36] = tested on: Leptinotarsa decemlineata; assay: Insecticidal activity against adult Leptinotarsa decemlineata infested potato leaves assessed as mortality at 1 mg after 96 hr relative to control; type: functional
[37] = tested on: Leptinotarsa decemlineata; assay: Insecticidal activity against adult Leptinotarsa decemlineata infested potato leaves assessed as mortality at 1 mg after 48 hr relative to control; type: functional
[38] = tested on: Leptinotarsa decemlineata; assay: Insecticidal activity against adult Leptinotarsa decemlineata infested potato leaves assessed as mortality at 1 mg after 24 hr relative to control; type: functional
[39] = tested on: Leptinotarsa decemlineata; assay: Insecticidal activity against adult Leptinotarsa decemlineata infested potato leaves assessed as mortality at 1 mg after 12 hr relative to control; type: functional
[40] = tested on: Leptinotarsa decemlineata; assay: Insecticidal activity against adult Leptinotarsa decemlineata infested potato leaves assessed as mortality at 0.5 mg after 96 hr relative to control; type: functional
[41] = tested on: Leptinotarsa decemlineata; assay: Insecticidal activity against adult Leptinotarsa decemlineata infested potato leaves assessed as mortality at 0.5 mg after 48 hr relative to control; type: functional
[42] = tested on: Leptinotarsa decemlineata; assay: Insecticidal activity against adult Leptinotarsa decemlineata infested potato leaves assessed as mortality at 0.5 mg after 24 hr relative to control; type: functional
[43] = tested on: Leptinotarsa decemlineata; assay: Insecticidal activity against adult Leptinotarsa decemlineata infested potato leaves assessed as mortality at 0.5 mg after 12 hr relative to control; type: functional
[44] = tested on: Leptinotarsa decemlineata; type: functional, Instar larval stage
[45] = tested on: Leptinotarsa decemlineata; type: functional, Instar larval stage; remark: listed apart in the source
[46] = tested on: Leptinotarsa decemlineata; assay: Insecticidal activity against third-instar larval stage of Leptinotarsa decemlineata infested potato leaves assessed as mortality at 1 mg after 24 hr relative to control; type: functional
[47] = tested on: Leptinotarsa decemlineata; assay: Insecticidal activity against third-instar larval stage of Leptinotarsa decemlineata infested potato leaves assessed as mortality at 1 mg after 12 hr relative to control; type: functional
[48] = tested on: Leptinotarsa decemlineata; type: functional, Instar larval stage; remark: listed apart in the source
[49] = tested on: Leptinotarsa decemlineata; type: functional, Instar larval stage; remark: listed apart in the source
[50] = tested on: Leptinotarsa decemlineata; assay: Insecticidal activity against third-instar larval stage of Leptinotarsa decemlineata infested potato leaves assessed as mortality at 0.5 mg after 24 hr relative to control; type: functional
[51] = tested on: Leptinotarsa decemlineata; assay: Insecticidal activity against third-instar larval stage of Leptinotarsa decemlineata infested potato leaves assessed as mortality at 0.5 mg after 12 hr relative to control; type: functional
[52] = tested on: Leptinotarsa decemlineata; type: functional, Instar larval stage; remark: listed apart in the source
[53] = tested on: Leptinotarsa decemlineata; type: functional, Instar larval stage; remark: listed apart in the source
[54] = tested on: Leptinotarsa decemlineata; type: functional, Instar larval stage; remark: listed apart in the source
[55] = tested on: Leptinotarsa decemlineata; assay: Insecticidal activity against second-instar larval stage of Leptinotarsa decemlineata infested potato leaves assessed as mortality at 1 mg after 12 hr relative to control; type: functional
[56] = tested on: Leptinotarsa decemlineata; type: functional, Instar larval stage; remark: listed apart in the source
[57] = tested on: Leptinotarsa decemlineata; type: functional, Instar larval stage; remark: listed apart in the source
[58] = tested on: Leptinotarsa decemlineata; type: functional, Instar larval stage; remark: listed apart in the source
[59] = tested on: Leptinotarsa decemlineata; assay: Insecticidal activity against second-instar larval stage of Leptinotarsa decemlineata infested potato leaves assessed as mortality at 0.5 mg after 12 hr relative to control; type: functional
[60] = tested on: Leptinotarsa decemlineata; assay: Insecticidal activity against first-instar larval stage of Leptinotarsa decemlineata infested potato leaves assessed as mortality at 1 mg after 96 hr relative to control; type: functional
[61] = tested on: Leptinotarsa decemlineata; assay: Insecticidal activity against first-instar larval stage of Leptinotarsa decemlineata infested potato leaves assessed as mortality at 1 mg after 48 hr relative to control; type: functional
[62] = tested on: Leptinotarsa decemlineata; assay: Insecticidal activity against first-instar larval stage of Leptinotarsa decemlineata infested potato leaves assessed as mortality at 1 mg after 24 hr relative to control; type: functional
[63] = tested on: Leptinotarsa decemlineata; assay: Insecticidal activity against first-instar larval stage of Leptinotarsa decemlineata infested potato leaves assessed as mortality at 1 mg after 12 hr relative to control; type: functional
[64] = tested on: Leptinotarsa decemlineata; assay: Insecticidal activity against first-instar larval stage of Leptinotarsa decemlineata infested potato leaves assessed as mortality at 0.5 mg after 96 hr relative to control; type: functional

For C=C(C)[C@H]1CC=C(C)CC1 [D-LIMONENE], the mortality [1] was 90%, the mortality [2] was 80% and the mortality [3] was 80%. It also gave a mortality [4] of 53.3%, a mortality (Sitophilus granarius) of 90% and a mortality [5] of 100%. For the same compound, the mortality [6] was 100%, the mortality [7] was 100% and the mortality [8] was 90%. The mortality [9] was 100%, the mortality [10] was 100% and the mortality [11] was 100%. For the same compound, the mortality [12] was 83.3%, the mortality [13] was 76.7% and the mortality [14] was 93.3%. For the same compound, the mortality [15] was 90%, the mortality [16] was 86.7% and the mortality [17] was 90%. It also gave a mortality [18] of 80%, a mortality [19] of 76.7% and a mortality [20] of 43.3%. For the same compound, the mortality [21] was 90%, the mortality [22] was 83.3% and the mortality [23] was 23.3%. It also gave a mortality [24] of 50%, a mortality [25] of 70% and a mortality [26] of 63.3%. It also gave a mortality [27] of 60%, a mortality [28] of 33.3% and a mortality [29] of 53.3%. The mortality [30] was 50%, the mortality [31] was 46.7% and the mortality [32] was 0%.
CC1(C)[C@H](/C=C(\Cl)C(F)(F)F)[C@@H]1C(=O)O[C@@H](C#N)c1cccc(Oc2ccccc2)c1 (relative stereo) [REL-LAMBDA CYHALOTHRIN] gave a mortality [33] of 100%, a mortality [34] of 93.3% and a mortality [35] of 63.3%. The mortality [36] was 100%, the mortality [37] was 100% and the mortality [38] was 100%. The mortality [39] was 90%, the mortality [40] was 100% and the mortality [41] was 100%. It also gave a mortality [42] of 100%, a mortality [43] of 100% and a mortality [44] of 93.3%. For the same compound, the mortality [45] was 93.3%, the mortality [46] was 90% and the mortality [47] was 86.7%. The mortality [48] was 100%, the mortality [49] was 100% and the mortality [50] was 86.7%. It also gave a mortality [51] of 73.3%, a mortality [52] of 100% and a mortality [53] of 100%. It also gave a mortality [54] of 100%, a mortality [55] of 80% and a mortality [56] of 100%. The mortality [57] was 100%, the mortality [58] was 86.7% and the mortality [59] was 73.3%. For the same compound, the mortality [60] was 100%, the mortality [61] was 100% and the mortality [62] was 90%. For the same compound, the mortality [63] was 60% and the mortality [64] was 100%.
